Experimental data published in patent US20090032411A1, “METHOD AND SYSTEM FOR DETECTING PHARMACOLOGICALLY ACTIVE SUBSTANCES BY MEASURING MEMBRANE CURRENTS WITH EXTRACELLULAR SENSORS” (Max-Planck-Gesellschaft zur Foerderung Der Wissenschaften …, priority 2006, published 2009).
“Also recorded” adds a separate entry of the source.

Tests used:
Assay type in all cases: cell-based
[1] = target: T1, ligand-gated ion channel 5-HT3A (Homo sapiens, UniProt P46098); assay: FET recording of the extracellular (junction) voltage signal of HEK293 cells doubly transfected with 5-HT3A and Kv1.3, ligands of 5-HT3A; conditions: for extracellular voltage signal in the cell-chip junction on application of agonist: agonist 100 μM, cells expressing both 5-HT3A and Kv1.3, FET recording; for effect on the serotonin-induced extracellular voltage signal: tropisetron 1 μM present before and during stimulation with 100 μM serotonin, doubly transfected cell
T1 construct: host or cells: HEK293
T1 sequence (P46098 24-478): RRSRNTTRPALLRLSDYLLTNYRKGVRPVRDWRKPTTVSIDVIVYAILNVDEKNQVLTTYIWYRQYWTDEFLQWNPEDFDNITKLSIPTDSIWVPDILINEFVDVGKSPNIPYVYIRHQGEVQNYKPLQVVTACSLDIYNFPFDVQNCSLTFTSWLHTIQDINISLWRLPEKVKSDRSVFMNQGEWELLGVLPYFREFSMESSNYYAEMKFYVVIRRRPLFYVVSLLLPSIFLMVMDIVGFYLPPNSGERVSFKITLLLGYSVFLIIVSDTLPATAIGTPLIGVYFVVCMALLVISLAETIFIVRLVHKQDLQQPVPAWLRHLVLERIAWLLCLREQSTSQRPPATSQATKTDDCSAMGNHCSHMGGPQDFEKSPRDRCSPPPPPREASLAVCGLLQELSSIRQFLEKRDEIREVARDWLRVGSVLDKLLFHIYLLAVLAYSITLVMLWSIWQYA
Description: (§1) HEK293 cells were cultured in plastic dishes (Becton Dickinson, No. 353001), in Dulbecco's modified Eagle's medium (GIBCO, No. 21885-025), supplemented with 10% heat-inactivated fetal bovine serum. The cDNA of the human ligand-gated ion channel 5-HT3A was purchased from Invitrogen (Ultimate ORF clone collection, HORF01), and subcloned into the expression plasmid pcDNA3 (Invitrogen, No. V790-20), applying standard molecular biology methods. The construction of an expression plasmid for the voltage-gated potassium channel Kv1.3 was as described in J. Kupper: Functional expression of GFP-tagged Kv1.3 and Kv1.4 channels in HEK 293 cells. Eur. J. Neurosci. 10, 3908-12 (1998). The cells were stably transfected with one of the two expression plasmids using Geneticin (GIBCO, No. 11811-064), as the selection antibiotic (500 μg/ml). After generation of stable cell lines, the cells were transiently transfected with the other of the two expression plasmids together with the EGFP-C1 plasmid (BD Biosciences Clontech, No. 632317), which served as control for successful transfection. Transfections were done using the Effectene method (Qiagen, No. 301425), at 60-80% confluency.
Silicon chips as described in M. Voelker, P. Fromherz: Signal transmission from individual mammalian nerve cell to field-effect transistor. Small 1, 206-210 (2005) with 128 Field Effect Transistors (FET) in two linear arrays and a culture chamber on top were cleaned, sterilized under UV-light and coated with 10 μg/ml fibronectin (Sigma, No. F2006). Cells were plated on these chips under normal culture conditions one day after transient transfection, and measurements were done one day after plating. Cells on transistor gates with the transiently expressed channels were identified by the green EGFP fluorescence.
During experiments the cells were flushed permanently with standard extracellular solution, consisting of (in mM): KCl 5.4, NaCl 135, CaCl2 1.8, MgCl2 1 Glucose 10, Hepes 5 (pH adjusted to 7.4 with NaOH). The ligands serotonin, CPBG (agonists of 5-HT3A) tropisetron and margatoxin (antagonists of 5-HT3A and Kv1.3, respectively), were obtained from Sigma (No. H9523, C144, T104, M8278), and dissolved in extracellular solution.
Ligand solutions were applied rapidly (ms range), with a double barrelled glass pipette (Theta-Tube), connected to a piezoelectric actuator (Burleigh, LSS-3100). Different ligand solutions were directed to the glass pipette by an eight-channel valve control system (ALA, BPS-8).
During application of ligands, the voltage in the cleft between transfected cells and the chip surface was probed with the gates of Field Effect Transistors under the cells.

[2] = target: T2, voltage-gated potassium channel Kv1.3 (Homo sapiens, UniProt P22001); assay: FET recording of the extracellular (junction) voltage signal of HEK293 cells doubly transfected with 5-HT3A and Kv1.3, blocker of Kv1.3
T2 construct: expressed in transfected cells; host or cells: HEK293
T2 sequence (P22001 whole entry): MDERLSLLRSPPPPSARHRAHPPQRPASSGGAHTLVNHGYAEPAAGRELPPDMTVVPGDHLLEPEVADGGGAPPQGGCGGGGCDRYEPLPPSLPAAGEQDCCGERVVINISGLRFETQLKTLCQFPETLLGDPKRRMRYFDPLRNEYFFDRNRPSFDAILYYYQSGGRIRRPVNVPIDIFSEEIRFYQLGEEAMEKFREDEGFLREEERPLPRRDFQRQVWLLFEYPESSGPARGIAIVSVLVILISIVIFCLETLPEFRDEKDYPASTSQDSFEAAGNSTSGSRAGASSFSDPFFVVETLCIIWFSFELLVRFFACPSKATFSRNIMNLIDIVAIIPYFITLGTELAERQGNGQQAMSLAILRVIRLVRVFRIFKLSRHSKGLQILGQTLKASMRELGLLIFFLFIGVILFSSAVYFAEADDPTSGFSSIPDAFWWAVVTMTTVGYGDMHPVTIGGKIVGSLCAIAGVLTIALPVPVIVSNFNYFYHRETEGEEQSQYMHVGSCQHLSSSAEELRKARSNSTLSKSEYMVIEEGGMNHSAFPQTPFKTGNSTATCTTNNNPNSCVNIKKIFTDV
Description: as §1, with “Transfections were done using the Effectene method (Qiagen, No. 301425), at 60-80% confluency.” left out
(§2) Silicon chips as described in M. Voelker, P. Fromherz: Signal transmission from individual mammalian nerve cell to field-effect transistor. […] Cells on transistor gates with the transiently expressed channels were identified by the green EGFP fluorescence. […]

[3] = target: T1, ligand-gated ion channel 5-HT3A; assay: FET recording of junction voltage of HEK293 cells expressing only 5-HT3A
Description: as §1, with “Transfections were done using the Effectene method (Qiagen, No. 301425), at 60-80% confluency.” left out
as §2

[4] = target: T3, voltage-gated channel Kv1.3 (Homo sapiens, UniProt P22001); assay: FET recording of junction voltage of HEK293 cells expressing only Kv1.3
T3 construct: expressed in transfected cells; host or cells: HEK293
T3 sequence (P22001 whole entry): as above
Description: as §1, with “Transfections were done using the Effectene method (Qiagen, No. 301425), at 60-80% confluency.” left out
as §2

Compound: NC(N)=NC(N)=Nc1cccc(Cl)c1 [CPBG]
- extracellular voltage signal in the cell-chip junction on application of agonist [1]: triggered a biphasic voltage signal; also recorded: caused a biphasic voltage signal

Compound: margatoxin (TIINVKCTSPKQCLPPCKAQFGQSAGAKCMNGKCKCYPH; UniProt P40755 1-39, looked up)
- effect on the serotonin-induced extracellular voltage signal ([2]; 5 nM margatoxin present during 100 μM serotonin stimulation, doubly transfected cell): The signal was reduced; also recorded: blocked the signal
- serotonin-triggered signal after removal of margatoxin (reversibility) ([2]; same cell, after removal of 5 nM margatoxin): A biphasic voltage signal was recovered

Compound: NCCc1c[nH]c2ccc(O)cc12 [serotonin]
- extracellular voltage signal in the cell-chip junction on application of agonist [1]: triggered a biphasic voltage signal; also recorded: Biphasic extracellular voltage signal; also recorded: caused a biphasic voltage signal
- voltage signal in the cell-chip junction upon stimulation with serotonin [3]: failed to cause a voltage signal
- voltage signal in the cell-chip junction upon stimulation with serotonin [4]: failed to produce a signal

Compound: CN1[C@@H]2CC[C@H]1C[C@@H](OC(=O)c1c[nH]c3ccccc13)C2 [tropisetron]
- effect on the serotonin-induced extracellular voltage signal [1]: blocked the signal
- effect on the serotonin-induced extracellular voltage signal ([1]; listed as Tropisetron): The signal was lost
